# Results published in article PMC8409973, “Synthesis, antiproliferative and antitrypanosomal activities, and DNA binding of novel 6-amidino-2-arylbenzothiazoles” (Journal of Enzyme Inhibition and Medicinal Chemistry, 2021).
# Counter-ions that a name gives are not always drawn.
# Assays:
# [1] = tested on: MCF-7 (human breast adenocarcinoma); test: Proliferation assay (MTT, 72 h) on MCF-7; assay type: cell-based; details: MCF7, MCF-7, 72 h
# Protocol: (§1) Human cell lines SW620 (colorectal adenocarcinoma, metastatic), MCF-7 (human breast adenocarcinoma), CFPAC-1 (pancreatic adenocarcinoma), HeLa (cervical carcinoma), and HFF-1 (human foreskin fibroblasts) were obtained from the American Type Culture Collection (ATCC). Cells were cultured in a humidified atmosphere at 37 °C with 5% CO2. As a growth medium, Dulbecco’s modified Eagle medium (DMEM) was used with the addition of foetal bovine serum (10%), L-glutamine (2 mM), and antibiotics: streptomycin ([…]) and penicillin (100 U/ml).
# (§2) Cells were seeded onto 96-well microtiter plates at a seeding density of 3000 cells/well for carcinoma cell lines, and 5000 cells/well for normal human fibroblasts. The next day, cells were treated with test agents at five different concentrations (0.01–100 µM) and further incubated for 72 h. […] 5-Fluorouracil (5-FU, 0.384 M fluorouracilum, Pliva 500 mg/10 ml) dissolved in physiological solution was used as a positive control. Following 72 h incubation, the MTT assay was performed and measured absorbances were transformed into a percentage of cell growth as described previously. Results were obtained from three independent experiments. IC50 values were calculated using linear regression analysis (FORECAST option taking into account the concentration range of two experimental points above and below IC50).
# [2] = tested on: L6 cells (a rat myoblast line); test: L6 cell proliferation (cytotoxicity, resazurin); assay type: cell-based; details: for IC50: 144 h, rat myoblast L6, 6 days; for SI IC50 (L6/Tb): SI = [IC50 L6 cells]/[IC50 T. brucei]
# [3] = tested on: CFPAC-1 (pancreatic adenocarcinoma); test: Proliferation assay (MTT, 72 h) on CFPAC-1; assay type: cell-based; details: Homo sapiens, CFPAC-1, 72 h
# Protocol: as §1, §2
# [4] = tested on: Bloodstream form T. b. brucei (strain 221); test: Antitrypanosomal screening (resazurin); assay type: cell-based; details: Trypanosoma brucei; for IC90: concentration that inhibited growth by 90%, mean ± SEM; for IC50: mean of triplicate ± SEM
# Protocol: Resazurin (20 μl at 0.125 mg ml^−1) was added after 48 h, the plates were incubated for a further 16 h, and then read in a Spectramax plate reader, and data analysed using GraphPad Prism. Each drug was tested in triplicate.
# [5] = tested on: SW620 (colorectal adenocarcinoma, metastatic); test: Proliferation assay (MTT, 72 h) on SW620; assay type: cell-based; details: Homo sapiens, SW-620, SW620, 72 h
# Protocol: as §1, §2
# [6] = tested on: HFF-1 (human foreskin fibroblasts); test: Proliferation assay (MTT, 72 h) on normal fibroblasts HFF-1; assay type: cell-based; details: HFF-1 normal fibroblasts
# Protocol: as §1, §2
# [7] = tested on: HeLa (cervical carcinoma); test: Proliferation assay (MTT, 72 h) on HeLa; assay type: cell-based; details: Homo sapiens
# Protocol: as §1, §2
Structure (SMILES),melting point [°C],IC50 [1] [µM],IC50 [2] [µM],IC50 [3] [µM],IC90 [4] [µM],IC50 [4] [µM],IC50 [5] [µM],IC50 [6] [µM],IC50 [7] [µM],SI IC50 (L6/Tb) [2]
N=C(N)c1ccc2nc(-c3ccc(OCc4cn(-c5ccccc5)nn4)cc3)sc2c1 (as salt: methanesulfonate) [10a],272 to 275,–,–,–,–,–,–,–,–,–
N=C(N)c1ccc2nc(-c3ccc(OCc4cn(-c5ccc(Cl)cc5)nn4)cc3)sc2c1 (as salt: methanesulfonate) [10b],276 to 279,–,–,–,–,–,–,–,–,–
COc1ccc(-n2cc(COc3ccc(-c4nc5ccc(C(=N)N)cc5s4)cc3)nn2)cc1 (as salt: methanesulfonate) [10c],265 to 270,–,–,–,–,–,–,–,–,–
N=C(N)c1ccc2nc(-c3ccc(OCc4cn(Cc5ccccc5)nn4)cc3)sc2c1 (as salt: methanesulfonate) [10d],253 to 257,–,–,–,–,–,–,–,–,–
"N=C(N)c1ccc2nc(-c3cn(-c4ccccc4)nn3)sc2c1 (as salt: methanesulfonate) [13a, 6-Amidinium-2-(1-phenyl-1H-1,2,3-triazole-4-yl)benzothiazole methanesulfonate]",289 to 293,–,–,–,–,–,–,–,–,–
"N=C(N)c1ccc2nc(-c3cn(-c4ccc(Cl)cc4)nn3)sc2c1 (as salt: methanesulfonate) [13b, 6-Amidinium-2-[1-(4-chlorophenyl)-1H-1,2,3-triazole-4-yl]benzothiazole methanesulfonate]",> 300,–,–,–,–,–,–,–,–,–
"COc1ccc(-n2cc(-c3nc4ccc(C(=N)N)cc4s3)nn2)cc1 (as salt: methanesulfonate) [13c, 6-Amidinium-2-[1-(4-methoxyphenyl)-1H-1,2,3-triazole-4-yl]benzothiazole methanesulfonate]",> 300,–,–,–,–,–,–,–,–,–
"N=C(N)c1ccc2nc(-c3cn(Cc4ccccc4)nn3)sc2c1 (as salt: methanesulfonate) [13d, 6-Amidinium-2-(1-benzyl-1H-1,2,3-triazole-4-yl)benzothiazole methanesulfonate]",262 to 267,–,–,–,–,–,–,–,–,–
N=C(N)c1ccc2nc(-c3ccc(OCc4cn(-c5ccccc5)nn4)cc3)sc2c1 [10a],–,3.39 ± 1.17,< 2,3.34 ± 0.19,1.45 ± 0.11,1.17 ± 0.1,2.89 ± 0.03,0.17 ± 0.04,2.89 ± 0.11,–
COc1ccc(-n2cc(COc3ccc(-c4nc5ccc(C(=N)N)cc5s4)cc3)nn2)cc1 [10c],–,3.66 ± 1.49,< 2,3.45 ± 0.29,1.26 ± 0.02,1 ± 0.07,3.86 ± 0.29,0.31 ± 0.08,2.87 ± 1.24,–
N=C(N)c1ccc2nc(-c3ccc(OCc4cn(Cc5ccccc5)nn4)cc3)sc2c1 [10d],–,3.02 ± 0.98,–,5.15 ± 0.23,–,–,1.18 ± 0.18,0.76 ± 0.18,1.77 ± 0.45,–
"COc1ccc(-n2cc(COc3nc4ccc(C5=NCCN5)cc4s3)nn2)cc1.CS(=O)(=O)O [11c, 6-(4,5-Dihydro-1H-imidazol-3-ium-2-yl)-2-{[1-(4-methoxyphenyl)-1H-1,2,3-triazol-4-yl]methoxy}benzothiazole methanesulfonate]",253 to 257,0.86 ± 0.97,< 2,2.06 ± 0.7,0.23 ± 0.05,0.19 ± 0.04,0.5 ± 0.16,0.24 ± 0.13,2.53 ± 0.01,–
"CS(=O)(=O)O.c1ccc(Cn2cc(COc3nc4ccc(C5=NCCN5)cc4s3)nn2)cc1 [11d, 6-(4,5-Dihydro-1H-imidazol-3-ium-2-yl)-2[(1-benzyl-1H-1,2,3-triazol-4-yl)methoxy]benzothiazole methanesulfonate]",227 to 232,2.21 ± 1.17,< 0.2,1.21 ± 0.74,1.3 ± 0.02,1.09 ± 0.02,1.81 ± 0.55,0.18 ± 0.02,1.4 ± 0.75,–
"CS(=O)(=O)O.c1ccc(-n2cc(COc3nc4ccc(C5=NCCCN5)cc4s3)nn2)cc1 [12a, 6-(3,4,5,6-Tetrahydropyrimidin-1-ium-2-yl)-2-[(1-phenyl-1H-1,2,3-triazol-4-yl)methoxy] benzothiazole methanesulfonate]",249 to 254,3.98 ± 0.04,–,3.98 ± 0.29,–,–,4.17 ± 0.28,0.44 ± 0.03,2.95 ± 0.38,–
"COc1ccc(-n2cc(COc3nc4ccc(C5=NCCCN5)cc4s3)nn2)cc1.CS(=O)(=O)O [12c, 6-(3,4,5,6-Tetrahydropyrimidin-1-ium-2-yl)-2-{[1-(4-methoxyphenyl)-1H-1,2,3-triazol-4-yl]methoxy}benzothiazole methanesulfonate]",259 to 264,3.46 ± 0.45,2.92 ± 0.26,3.31 ± 0.6,1.18 ± 0.02,0.9 ± 0.05,5.22 ± 1.24,0.46 ± 0.27,2.64 ± 0.46,3.2
"CS(=O)(=O)O.c1ccc(Cn2cc(COc3nc4ccc(C5=NCCCN5)cc4s3)nn2)cc1 [12d, 6-(3,4,5,6-Tetrahydropyrimidin-1-ium-2-yl)-2-[(1-benzyl-1H-1,2,3-triazol-4-yl)methoxy]benzothiazole methanesulfonate]",197 to 199,6.01 ± 0.53,–,23.4 ± 0.29,–,–,7.94 ± 2.58,1.74 ± 0.29,8.6 ± 0.85,–
"N=C(N)c1ccc2nc(-c3cn(-c4ccccc4)nn3)sc2c1 [13a, 6-Amidinium-2-(1-phenyl-1H-1,2,3-triazole-4-yl)benzothiazole methanesulfonate]",–,25.6 ± 3.15,7.97 ± 0.96,26.6 ± 4.69,2.52 ± 0.34,2.02 ± 0.1,24.2 ± 4.31,2.07 ± 0.13,7.77 ± 0.05,3.9
"N=C(N)c1ccc2nc(-c3cn(-c4ccc(Cl)cc4)nn3)sc2c1 [13b, 6-Amidinium-2-[1-(4-chlorophenyl)-1H-1,2,3-triazole-4-yl]benzothiazole methanesulfonate]",–,3.32 ± 0.01,2.69 ± 0.42,3.17 ± 0.11,1.02 ± 0.02,0.67 ± 0.07,3.55 ± 0.85,0.85 ± 0.05,2.74 ± 0.21,4.0
"COc1ccc(-n2cc(-c3nc4ccc(C(=N)N)cc4s3)nn2)cc1 [13c, 6-Amidinium-2-[1-(4-methoxyphenyl)-1H-1,2,3-triazole-4-yl]benzothiazole methanesulfonate]",–,4.5 ± 0.43,–,5.23 ± 0.87,–,–,5.39 ± 0.41,2.99 ± 1.17,3.64 ± 1.44,–
"N=C(N)c1ccc2nc(-c3cn(Cc4ccccc4)nn3)sc2c1 [13d, 6-Amidinium-2-(1-benzyl-1H-1,2,3-triazole-4-yl)benzothiazole methanesulfonate]",–,22.6 ± 0.91,–,25.9 ± 3.71,–,–,9.48 ± 0.29,4.04 ± 1.35,14.9 ± 1.54,–
"CS(=O)(=O)O.c1ccc(Cn2cc(-c3nc4ccc(C5=NCCN5)cc4s3)nn2)cc1 [14d, 6-(4,5-Dihydro-1H-imidazol-3-ium-2-yl)-2-(1-benzyl-1H-1,2,3-triazole-4-yl)benzothiazole methanesulfonate]",236 to 240,1.76 ± 1.17,6.64 ± 0.53,8.71 ± 3.74,8.66 ± 0.2,3.68 ± 0.22,0.85 ± 0.61,0.11 ± 0.01,0.82 ± 0.01,1.8
"CS(=O)(=O)O.c1ccc(-n2cc(-c3nc4ccc(C5=NCCCN5)cc4s3)nn2)cc1 [15a, 6-(3,4,5,6-Tetrahydropyrimidin-1-ium-2-yl)-2-(1-phenyl-1H-1,2,3-triazole-4-yl)benzothiazole methanesulfonate]",269 to 274,8.31 ± 0.12,–,37.6 ± 4.58,–,–,4.15 ± 1.58,0.53 ± 0.1,7.62 ± 0.84,–
"COc1ccc(-n2cc(-c3nc4ccc(C5=NCCCN5)cc4s3)nn2)cc1.CS(=O)(=O)O [15c, 6-(3,4,5,6-Tetrahydropyrimidin-1-ium-2-yl)-2-[1-(4-methoxyphenyl)-1H-1,2,3-triazole-4-yl]benzothiazole methanesulfonate]",261 to 265,4.28 ± 0.06,–,4.74 ± 0.14,–,–,4.07 ± 1.06,1.33 ± 0.17,4.3 ± 0.41,–
"CS(=O)(=O)O.c1ccc(Cn2cc(-c3nc4ccc(C5=NCCCN5)cc4s3)nn2)cc1 [15d, 6-(3,4,5,6-Tetrahydropyrimidin-1-ium-2-yl)-2-(1-benzyl-1H-1,2,3-triazole-4-yl)benzothiazole methanesulfonate]",170 to 174,40.6 ± 10.6,–,49.9 ± 12.5,–,–,31.9 ± 8.38,18.9 ± 0.19,31 ± 4.5,–
